Test results taken from publication PMC12040169 (PLOS Biology, 2025).

Assay: in vitro
Details: human, hela cells, % viability

Structure (SMILES) | viability at 28.5 h, 10 µM [%]
CN(C)Cc1c(O)ccc2occ(C(=O)c3cccs3)c12 [CBK261959C] | 103
O=C(N/N=C\C=C\c1ccco1)c1ccc([N+](=O)[O-])cc1 [CBK261961] | 102
c1ccc(-c2nc3ccc(Oc4ccc5nc(-c6ccccn6)c(-c6ccccn6)nc5c4)cc3nc2-c2ccccn2)nc1 [CBK261964] | 99.6
CN(C)Cc1c(O)ccc2occ(C(=O)c3ccccc3)c12 [CBK261965] | 94
Clc1ccc(-c2ccc(/C=N/c3ccc4oc(-c5ccccc5)nc4c3)o2)cc1 [CBK261969] | 102
C/C(=N\NC(=O)CCC(=O)Nc1ccc(I)cc1)c1ccc(O)cc1O [CBK261971] | 89.9
Cc1ccc(S(=O)(=O)N=C2NCN(C)CN2)cc1 [CBK261972] | 94.3
O=C(O)CC(Cc1ccc(Cl)cc1)C(=O)Nc1ccc([N+](=O)[O-])cc1 (centres unmarked) [CBK261973] | 89.7
Cc1cc(Cl)ccc1NC(=O)CCC(=O)N/N=C/c1ccc(O)cc1 [CBK261974] | 89.6
c1ccc(-c2nc3ccc(Cc4ccc5nc(-c6ccccn6)c(-c6ccccn6)nc5c4)cc3nc2-c2ccccn2)nc1 [CBK261975] | 101
N/N=C1\C2CN3CCN(C2)CC1(Cc1ccccc1)C3 [CBK261977] | 91.8
CN(Cc1cc(C(C)(C)C)c(O)c(C(C)(C)C)c1)Cc1cc(C(C)(C)C)c(O)c(C(C)(C)C)c1 [CBK261980] | 97
COc1ccc(/C=N/NS(C)(=O)=O)cc1 [CBK261981] | 108
COc1ccc(/C=N/Nc2ccc([N+](=O)[O-])cc2)c(C(=O)O)c1OC [CBK261984] | 90.5
CC1(C)CC(N2CN(C3CC(C)(C)NC(C)(C)C3)CN(C3CC(C)(C)NC(C)(C)C3)C2)CC(C)(C)N1 [CBK261985] | 90.8
O=C(CNC(=O)c1ccc2c(c1)OCCO2)N/N=C/c1cccs1 [CBK261987] | 86.5
Nc1nonc1-n1nnc(C(=O)N/N=C/c2ccc([N+](=O)[O-])cc2)c1-c1ccccc1 [CBK261992] | 86.4
CN(C)CCCn1cccc1C=O [CBK261993G] | 90.3
Oc1c(CN2CCN(Cc3ccc4cccnc4c3O)CC2)ccc2cccnc12 [CBK261994] | 86.1
CCCNc1nc(Cl)nc(NCc2cccnc2)n1 [CBK261995] | 89
O=C(O)CC(NC=C1C(=O)CCCC1=O)C(=O)O (centres unmarked) [CBK261997] | 85.2
CC(C)(C)c1cc(CCCOC(=O)CNC2CCCCC2)cc(C(C)(C)C)c1O [CBK261998] | 89.4

Structure (SMILES) | viability at 28.5 h, 10 µM [%]
COc1ccc(OCCOCCN2CCOCC2)cc1 [CBK261999] | 91.3
COc1cc(NC(=O)C(c2ccccc2)c2ccccc2)c(C(=O)O)cc1OC [CBK262001] | 90.1
O=C(CC1=C(O)C(=O)c2ccccc2C1=O)c1ccccc1 [CBK262002] | 80.5
Oc1ccc2ccccc2c1/C=N/Nc1nnc(-c2ccccc2)c(-c2ccccc2)n1 [CBK262005] | 91.9
Cc1ccccc1C(=O)Nc1cc(NC(=O)c2ccccc2C)cc(C(=O)O)c1 [CBK262007] | 109
CC1(C)CC(N2CNC(=N)N(C#N)C2)CC(C)(C)N1 [CBK262008] | 90.7
Oc1ccc(/N=N/c2cccc(Br)c2)cc1/C=N/c1ccc(-c2nc3ncccc3o2)cc1 [CBK262009] | 85.9
Oc1ccc(/C=N/Nc2nnc(-c3ccccc3)c(-c3ccccc3)n2)cc1 [CBK262011] | 112
Cc1ccccc1NC(=O)CCC(=O)N/N=C/c1ccncc1 [CBK262016] | 101
O=C(O)CC(Cc1ccc(Cl)cc1)C(=O)Nc1ccccc1I (centres unmarked) [CBK262021] | 90
O=C(N/N=C/c1c(Cl)cccc1Cl)c1cc(Br)ccc1O [CBK262022] | 95.1
Cc1ccc([N+](=O)[O-])cc1NC1OCC(O)C(O)C1O (centres unmarked) [CBK262026] | 98.8
COc1cc(/C=N/NC(=O)Cc2nnc(N)s2)cc(OC)c1OC [CBK262027] | 109
Oc1ccc2ccccc2c1/C=N/Nc1nnn[nH]1 [CBK262028] | 106
Cc1ccc([N+](=O)[O-])cc1NC1OC(C(O)CO)C(O)C1O (centres unmarked) [CBK262031] | 98
O=C(O)c1ccc(/C=N/c2ccc(S(=O)(=O)c3ccc(/N=C/c4ccc(C(=O)O)cc4)cc3)cc2)cc1 [CBK262038] | 92.4
CN(CCN(C)/N=C/c1c2ccccc2cc2ccccc12)/N=C/c1c2ccccc2cc2ccccc12 [CBK262039] | 94.8
CC(CNC(=O)c1cncc(Br)c1)NC(=O)c1cncc(Br)c1 (centres unmarked) [CBK262040] | 91.6
Oc1c(Br)cc(Cl)cc1/C=N/Nc1nnc2c(n1)[nH]c1ccccc12 [CBK262041] | 114
OCC(O)/C=N/Nc1nc(Nc2ccccc2)nc(N2CCCCC2)n1 (centres unmarked) [CBK262042] | 107
CN(C)CCCNC=C1C(=O)CC(C)(C)CC1=O [CBK262043] | 92.2
Cc1n[nH]c(C)c1Sc1ccccc1/N=C/c1ccc([N+](=O)[O-])cc1 [CBK262045] | 87.4

Structure (SMILES) | viability at 28.5 h, 10 µM [%]
O=S1(=O)CC(OS(=O)(=O)c2ccc(Cl)cc2)C(OS(=O)(=O)c2ccc(Cl)cc2)C1 (centres unmarked) [CBK262049] | 104
Oc1ccccc1CN1CCN(Cc2ccccc2O)C1c1ccccc1Br [CBK262050] | 98.1
O=C(CO/N=C\c1cccc([N+](=O)[O-])c1)Nc1ccccc1C(=O)O [CBK262051] | 91.7
Cc1[nH]c(=O)[nH]c(=O)c1N(CCO)CCO [CBK262052] | 94.8
Cc1cc([N+](=O)[O-])ccc1/N=C\c1ccc(C(=O)O)cc1 [CBK262058] | 95.4
Clc1ccc(COc2ccc(/C=N/Nc3nc(N4CCOCC4)nc(N4CCOCC4)n3)cc2)c(Cl)c1 [CBK262061] | 103
N#CC(/N=C/c1ccc(C#Cc2ccccc2)cc1)=C(C#N)/N=C/c1ccc(C#Cc2ccccc2)cc1 [CBK262066] | 88
COc1ccc(-c2n[nH]cc2/C=N/NC(=O)c2cc(Br)ccc2O)c(OC)c1 [CBK262067] | 85.9
CC1CCN(S(=O)(=O)c2cccc3c(S(=O)(=O)N4CCC(C)CC4)cccc23)CC1 [CBK262071] | 98.2
Cc1ccc2ccc(S(=O)(=O)NCc3cccnc3)cc2c1 [CBK262072] | 98.8
CCN(CC)CC(c1ccccc1)C(O)c1ccc(OC)cc1 (centres unmarked) [CBK262074C] | 88.8
COc1cc(C)nc(NN)n1 [CBK262078] | 108
Cc1cc(-c2cc(C)n[nH]2)[nH]n1 [CBK262079] | 107
CC(=O)C(C(=O)Nc1ccc(F)cc1)C(c1cccc2ccccc12)C(C#N)C#N (centres unmarked) [CBK262081] | 90.4
Cc1nc2cc(/N=C/c3c[nH]c4ccccc34)ccc2n1C [CBK262085] | 88.8
c1ccc(CC(NCc2c[nH]c3ccccc23)c2ccccc2)cc1 (centres unmarked) [CBK262087] | 96.4
CC(C)(CNS(=O)(=O)c1ccc(Cl)cc1)OCc1ccccc1 [CBK262088] | 91.4
O=C(/C=C(\c1ccccc1)n1cncn1)c1ccc(Cl)cc1 [CBK262089] | 90.7
Cc1ccc(N(CC(=O)N/N=C/c2ccccc2)S(=O)(=O)c2ccccc2)cc1 [CBK262090] | 88.3
O=C(Nc1ccccc1O)c1ccc2c(c1)C(=O)N(c1ccc(Sc3ccc([N+](=O)[O-])cc3)cc1)C2=O [CBK262092] | 86.8
O=C(O)c1ccc(S(=O)(=O)NCc2ccccc2)cc1 [CBK262093] | 102
O=C(Oc1cccc(-c2cnc3ccccc3n2)c1)c1cccc(S(=O)(=O)N2CCOCC2)c1 [CBK262096] | 89.3

Structure (SMILES) | viability at 28.5 h, 10 µM [%]
Cc1ccc(/C=N/NC(=O)CN(c2ccccc2)S(=O)(=O)c2ccccc2)c(C)c1C [CBK262098] | 89.6
C/C(=N\Nc1nc(-c2ccccc2)cs1)c1ccccc1 [CBK262104] | 88.8
Cc1ccccc1C(=O)NC(=S)Nc1sc2c(c1C(N)=O)CCC2 [CBK262107] | 88.9
CC(NC(=O)COc1ccc(Cl)cc1)C(=O)O (centres unmarked) [CBK262112] | 90.7
CC(Oc1cccc(Cl)c1)C(=O)N/N=C/c1cccc(Oc2ccccc2)c1 (centres unmarked) [CBK262113] | 77.5
Cn1c(/N=N/c2c(-c3ccccc3)n(C)c3ccccc23)nc2ccccc21 [CBK262114] | 81.2
O=C(O)CCC(=O)NNC(=O)c1cccc(O)c1 [CBK262116] | 97.8
Cc1ccc(S(=O)(=O)c2cccc(S(=O)(=O)N3CCOCC3)c2)cc1S(=O)(=O)N1CCOCC1 [CBK262117] | 109
Cc1ccccc1NCC(=O)N/N=C\c1cc(Br)c(O)c(Br)c1 [CBK262120] | 87.7
N#C/C(=C\c1ccc(-c2ccc(C(=O)O)c(O)c2)o1)c1nc2ccccc2[nH]1 [CBK262121] | 91.7
Cc1[nH]c(=O)[nH]c(=O)c1S(=O)(=O)Nc1ccc(S(N)(=O)=O)cc1 [CBK262123] | 91.7
O=C(COC(=O)c1cc(O)nc2ccccc12)c1ccc(Br)cc1 [CBK262125] | 103
CSc1ccc(CNCCc2c[nH]c3ccccc23)cc1 [CBK262126] | 93.4
COc1ccc(CC(C(=O)O)C(=O)O)cc1OC [CBK262127] | 95.9
N=c1n(CC(=O)c2ccc(-c3ccccc3)cc2)c2ccccc2n1Cc1ccccc1 [CBK262128B] | 99.3
O=C(Cn1c(NCCO)nc2ccccc21)C12CC3CC(CC(C3)C1)C2 [CBK262129B] | 85.4
O=C(CSc1nc2ccccc2s1)c1cccc([N+](=O)[O-])c1 [CBK262130] | 88.2
O=C(Nc1cccc2cccnc12)c1sc2ccccc2c1Cl [CBK262132] | 98.8
O=C1c2ccc(-n3c(=O)c4cc5c(=O)n(-c6ccc7c(c6)C(=O)N(c6ccccc6)C7=O)c(=O)c5cc4c3=O)cc2C(=O)N1c1ccccc1 [CBK262136] | 88.1
O=C(Cn1c(NCCO)nc2ccccc21)c1ccc([N+](=O)[O-])cc1 [CBK262139B] | 100
